“Also recorded” adds a separate entry of the source.
Key:
B. infantis M-63 = experiment: Bacterial growth assay (OD600); type: cell-based, Bifidobacterium infantis; conditions: 1% carbohydrate in sMRS+cysteine
Protocol: (§1) Coy Laboratory Products, Grass Lake, Mich.). Subsequently, the cultures are passed twice on a semi-synthetic MRS medium ([…] which is supplemented with 1% (w/v) filter-sterilized glucose as the sole carbohydrate source. […] For bifidobacteria strains, the same procedure is followed except all media are supplemented with 0.5 g/l L-cysteine/HCl. [table] After the 2nd pass in sMRS+glucose+cysteine, the cultures are washed once with 10 mL of sterile sMRS+cysteine (no carbohydrate), resuspended in 10 ml of sterile sMRS+cysteine (no carbohydrate) and then used as a 1% inoculum. The carbohydrates are sterilized with a 0.22 micron filter and used at a 1% final concentration. Cell growth is performed in 250 μL of sMRS+cysteine covered with 50 μL of mineral oil in a Bioscreen 100-well Honeycomb plate. […] The plate reader is operated in discontinuous mode, with absorbance readings performed in 30-minute intervals, and preceded by 30-second shaking intervals at maximum speed. Controls consist of inoculated medium lacking carbohydrate. […] All three plates include a positive control (glucose) and negative control (no carbohydrate). The OD600 data for each carbohydrate is corrected by subtracting the OD600 of the basal media (sMRS)+cysteine from the sample plate for each probiotic. Maximum OD is determined by inspection of the corrected growth data. OD is determined by subtracting the initial corrected OD (time point 0) from the maximum corrected OD. Samples are grown in biologically independent triplicates and the resulting growth kinetic data are expressed as the mean of these replicates. For the growth curve plots, OD600 vs. time is first plotted for the bacteria grown on medium lacking carbohydrate (sMRS). For all other carbohydrates, the OD600 data is corrected by subtracting the OD600 of sMRS.

B. infantis ATCC 15697 = experiment: Bacterial growth assay (OD600); type: cell-based, Bifidobacterium infantis; conditions: 1% carbohydrate in sMRS+cysteine
Protocol: as §1

HT-29 cells = experiment: Alkaline phosphatase activity per milligram of protein (cell differentiation), HT-29; type: cell-based, human; conditions: Example 48: LNnT or 2′FL 20, 200, 2000 mg/L; 6′SL 40, 400; 72 hours
Protocol: In a first experiment, HT-29 cells, which model the immature epithelial cells of the small intestine, are incubated in a humidified atmosphere of 5% carbon dioxide at 37° C. in the presence of LNnT or 2′FL at concentrations of 0 mg/L (“0”), 20 mg/L (“20”), 200 mg/L (“200”), and 2000 mg/L (“2000”) or in the presence of 6′SL at concentrations of 0 mg/mL (“0”), 40 mg/mL (“40”), 400 mg/mL (“400”), and 4000 mg/mL (“4000”) for 72 hours. The culture medium utilized is Dulbecco's Modified Eagle Medium (Life Technologies, Foster City Calif.) supplemented with 10% fetal calf serum and 2 mM glutamine. The controls (“energy”) consist of 91.5 mg lactose and 64.2 mg N-acetyllactosamine/L for LNnT; 133 mg lactose and 67 mg fucose/L for 2′FL; and 195 mg lactose and 205 mg/L sialic acid for 6′SL. The impact of the LNnT, 2′FL, and 6′SL at various levels and the controls on HT-29 cell proliferation is measured using a conventional BrdU assay, which measures the number of cells that have recently synthesized DNA. […] Additionally, the impact of LNnT, 2′FL, and 6′SL at various levels and the controls on the alkaline phosphatase activity per milligram of protein for HT-29 cells, which is an indicator of cell differentiation, is measured.

bifidobacteria strains = experiment: Bacterial growth assay (OD600), panel of 12 strains; type: cell-based, Bifidobacterium; conditions: 1% carbohydrate in sMRS+cysteine
Protocol: as §1

Caco-2 cells = experiment: Transepithelial resistance (barrier function), Caco-2, Ussing chambers; type: cell-based, human; conditions: Example 48, more mature Caco-2 cells
Description: FIGS. 46-48 illustrate the effect of LNnT, 2′FL, and 6′SL on cell resistance (transepithelial resistance), which is a marker for epithelial barrier function, wherein a higher resistance is associated with a higher barrier function. Epithelial cell resistance or barrier function is a measure of differentiated epithelial cell function. Specifically, as the cells mature, tighter junctions between the cells are formed resulting in a stronger epithelial cell barrier. This barrier prevents the movement of large molecules, bacteria, or viruses from one side of the barrier to the other. […] Transepithelial resistance is measured using Transwell Snapwell inserts containing the desired cell culture were transferred to modified Ussing chambers and bathed in modified Kreb's solution at 37 C with 95% oxygen and 5% carbon dioxide. Transepithelial resistance was measured as the passive transport of ions across the monolayers.

B. breve ATCC 15700 = experiment: Bacterial growth assay (OD600); type: cell-based, Bifidobacterium breve; conditions: 1% carbohydrate in sMRS+cysteine
Protocol: Coy Laboratory Products, Grass Lake, Mich.). Subsequently, the cultures are passed twice on a semi-synthetic MRS medium ([…] which is supplemented with 1% (w/v) filter-sterilized glucose as the sole carbohydrate source. […] For bifidobacteria strains, the same procedure is followed except all media are supplemented with 0.5 g/l L-cysteine/HCl. […] After the 2nd pass in sMRS+glucose+cysteine, the cultures are washed once with 10 mL of sterile sMRS+cysteine (no carbohydrate), resuspended in 10 ml of sterile sMRS+cysteine (no carbohydrate) and then used as a 1% inoculum. The carbohydrates are sterilized with a 0.22 micron filter and used at a 1% final concentration. Cell growth is performed in 250 μL of sMRS+cysteine covered with 50 μL of mineral oil in a Bioscreen 100-well Honeycomb plate. […] The plate reader is operated in discontinuous mode, with absorbance readings performed in 30-minute intervals, and preceded by 30-second shaking intervals at maximum speed. Controls consist of inoculated medium lacking carbohydrate. […] Maximum OD is determined by inspection of the corrected growth data. OD is determined by subtracting the initial corrected OD (time point 0) from the maximum corrected OD. Samples are grown in biologically independent triplicates and the resulting growth kinetic data are expressed as the mean of these replicates. […]

Structure (SMILES): CC(=O)N[C@H]1[C@H](O[C@H]2[C@@H](O)[C@@H](CO)O[C@@H](O[C@H]3[C@H](O)[C@@H](O)C(O)O[C@@H]3CO)[C@@H]2O)O[C@H](CO)[C@@H](O[C@@H]2O[C@H](CO)[C@H](O)[C@H](O)[C@H]2O)[C@@H]1O (mixture of isomers) [LNnT, Lacto-N-neotetraose]
- growth / ability to ferment (OD600) (B. infantis M-63): grow well
- growth / ability to ferment (OD600) (B. infantis ATCC 15697): grow well
- alkaline phosphatase activity per milligram of protein (cell differentiation) (HT-29 cells): trend toward an increase
- growth / ability to ferment (OD600) (bifidobacteria strains): B. breve ATCC 15700, B. infantis ATCC 15697 and B. infantis M-63 are able to ferment
- cell resistance (transepithelial resistance), barrier function (Caco-2 cells): can have a positive effect on cell resistance; also recorded: can positively affect barrier function of more mature cells
- growth / ability to ferment (OD600) (B. breve ATCC 15700): grow well

Source: patent publication US11337990B2, “Human milk oligosaccharides to promote growth of beneficial bacteria” (ABBOTT LABORATORIES, priority 2010, dated 2022)
